# Reference: patent US6358885B1, “Substituted phenylheterocyclic herbicides” (Mississippi State University, priority 1992, dated 2002)
# Legend:
# rice = assay: Test B preemergence/postemergence greenhouse plant response rating 0 to 10; assay type: in vivo, Oryza sativa; details: 0 to 10 scale
# Outline: (§1)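 Planted seeds are treated preemergence with compound dissolved in a non-phytotoxic solvent, while postemergence applications go onto plants of two to eighteen cm. Plants stay in the greenhouse twelve to sixteen days and are then rated visually relative to controls.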
# giant foxtail = assay: Test C preemergence/postemergence greenhouse plant response rating 0 to 100; assay type: in vivo, Setaria faberii; details: for Plant response rating, Giant foxtail: 0 to 100 scale
# Text: (§2) The compounds evaluated in this test were formulated in a non-phytoxic solvent and applied to the soil surface before plant seedlings emerged (preemergence application), to water that covered the soil surface (flood application), and to plants that were in the one-to-four leaf stage (postemergence application). A sandy loam soil was used for the preemergence and postemergence tests, while a silt loam soil was used in the flood test. Water depth was approximately 2.5 cm for the flood test and was maintained at this level for the duration of the test. Plant species in the preemergence and postemergence tests consisted of barley (Hordeum vulgare), bedstraw (Galium aparine), blackgrass (Alopecurus myosuroides), chickweed (Stellaria media), corn (Zea mays), cotton (Gossypium hirsutum), crabgrass (Digitaria sanguinalis), downy brome (Bromus tectorum), giant foxtail (Setaria faberii), lambsquarters (Chenopodium album), morningglory (Ipomoea hederacea), pigweed ([…]), rape (Brassica napus), ryegrass (Lolium multiflorum), sorghum (Sorghum bicolor), soybean (Glycine max), speedwell (Veronica persica), sugar beet (Beta vulgaris), velvetleaf (Abutilon theophrasti), wheat (Triticum aestivum), wild buckwheat (Polygonum convolvulus), and wild oat (Avena fatua). All plant species were planted one day before application of the compound for the preemergence portion-of this test. Plantings of these species were adjusted to produce plants of appropriate size for the post-emergence portion of the test. […] All plant species were grown using normal greenhouse practices. Visual evaluations of injury expressed on treated plants, when compared to untreated controls, were recorded approximately fourteen to twenty one days after application of the test compound. […] A dash (-) response means no test result.
# velvetleaf = assay: as above; assay type: in vivo, Abutilon theophrasti; details: for Plant response rating, Velvetleaf: 0 to 100 scale
# Text: as §2
# cocklebur = assay: Test B preemergence/postemergence greenhouse plant response rating 0 to 10; assay type: in vivo, Xanthium pensylvanicum; details: 0 to 10 scale
# Outline: as §1
# bedstraw = assay: Test C preemergence/postemergence greenhouse plant response rating 0 to 100; assay type: in vivo, Galium aparine; details: for Plant response rating, Bedstraw: 0 to 100 scale
# Text: as §2
# sugar beet = assay: as above; assay type: in vivo, Beta vulgaris; details: for Plant response rating, Sugar beet: 0 to 100 scale
# Text: as §2
# soybean = assay: Test B preemergence/postemergence greenhouse plant response rating 0 to 10; assay type: in vivo, Glycine max; details: 0 to 10 scale
# Outline: as §1
# wild buckwheat = assay: as above; assay type: in vivo, Polygonum convolvulus; details: 0 to 10 scale
# Outline: as §1
# blackgrass = assay: Test C preemergence/postemergence greenhouse plant response rating 0 to 100; assay type: in vivo, Alopecurus myosuroides; details: for Plant response rating, Blackgrass: 0 to 100 scale
# Text: as §2
# cotton = assay: as above; assay type: in vivo, Gossypium hirsutum; details: for Plant response rating, Cotton: 0 to 100 scale
# Text: as §2
# chickweed = assay: as above; assay type: in vivo, Stellaria media; details: for Plant response rating, Chickweed: 0 to 100 scale
# Text: as §2
# pigweed = assay: as above; assay type: in vivo, Amaranthusretroflexus; details: for Plant response rating Pigweed: 0 to 100 scale
# Text: as §2
# corn = assay: as above; assay type: in vivo, Zea mays; details: for Plant response rating, Corn: 0 to 100 scale
# Text: as §2
# purple nutsedge = assay: Test B preemergence/postemergence greenhouse plant response rating 0 to 10; assay type: in vivo, Cyperus rotundus; details: 0 to 10 scale
# Outline: as §1
smiles,measurement,setting,value
C#CCN1C(=O)COc2cc(F)c(-c3nn4c(c3Br)CCCC4)cc21 [Compound 56],"Plant response rating, Rice","rice; POSTEMERGENCE, Rate 10 g/ha",3
same,"Plant response rating, Rice","rice; POSTEMERGENCE, Rate 50 g/ha",4
same,"Plant response rating, Rice","rice; PREEMERGENCE, Rate 50 g/ha",0
same,"Plant response rating, Giant foxtail","giant foxtail; POSTEMERGENCE, 62 g/ha",40
same,"Plant response rating (0 to 100), Giant foxtail","giant foxtail; POSTEMERGENCE, Rate 1 g/ha",10
same,"Plant response rating (0 to 100), Giant foxtail","giant foxtail; POSTEMERGENCE, Rate 4 g/ha",10
same,"Plant response rating (0 to 100), Giant foxtail","giant foxtail; Rate 16 g/ha, POSTEMERGENCE",30
same,"Plant response rating, Velvetleaf","velvetleaf; POSTEMERGENCE, 62 g/ha",100
same,"Plant response rating (0 to 100), Velvetleaf","velvetleaf; POSTEMERGENCE, Rate 1 g/ha",100
same,"Plant response rating (0 to 100), Velvetleaf","velvetleaf; POSTEMERGENCE, Rate 4 g/ha",100
same,"Plant response rating (0 to 100), Velvetleaf","velvetleaf; Rate 16 g/ha, POSTEMERGENCE",100
same,"Plant response rating, Cocklebur","cocklebur; POSTEMERGENCE, Rate 10 g/ha",10
same,"Plant response rating, Cocklebur","cocklebur; POSTEMERGENCE, Rate 50 g/ha",10
same,"Plant response rating, Cocklebur","cocklebur; PREEMERGENCE, Rate 10 g/ha",2
same,"Plant response rating, Cocklebur","cocklebur; PREEMERGENCE, Rate 50 g/ha",2
same,"Plant response rating, Bedstraw","bedstraw; POSTEMERGENCE, 62 g/ha",100
same,"Plant response rating (0 to 100), Bedstraw","bedstraw; POSTEMERGENCE, Rate 1 g/ha",70
same,"Plant response rating (0 to 100), Bedstraw","bedstraw; POSTEMERGENCE, Rate 4 g/ha",80
same,"Plant response rating (0 to 100), Bedstraw","bedstraw; Rate 16 g/ha, POSTEMERGENCE",95
same,"Plant response rating, Sugar beet","sugar beet; POSTEMERGENCE, 62 g/ha",100
same,"Plant response rating (0 to 100), Sugar beet","sugar beet; POSTEMERGENCE, Rate 1 g/ha",100
same,"Plant response rating (0 to 100), Sugar beet","sugar beet; POSTEMERGENCE, Rate 4 g/ha",100
same,"Plant response rating (0 to 100), Sugar beet","sugar beet; Rate 16 g/ha, POSTEMERGENCE",100
same,"Plant response rating, Soybean","soybean; POSTEMERGENCE, Rate 10 g/ha",9
same,"Plant response rating, Soybean","soybean; POSTEMERGENCE, Rate 50 g/ha",8
same,"Plant response rating, Soybean","soybean; PREEMERGENCE, Rate 50 g/ha",0
same,"Plant response rating, Wild buckwheat","wild buckwheat; POSTEMERGENCE, Rate 10 g/ha",10
same,"Plant response rating, Wild buckwheat","wild buckwheat; POSTEMERGENCE, Rate 50 g/ha",10
same,"Plant response rating, Wild buckwheat","wild buckwheat; PREEMERGENCE, Rate 50 g/ha",9
same,"Plant response rating, Blackgrass","blackgrass; POSTEMERGENCE, 62 g/ha",80
same,"Plant response rating (0 to 100), Blackgrass","blackgrass; POSTEMERGENCE, Rate 1 g/ha",30
same,"Plant response rating (0 to 100), Blackgrass","blackgrass; POSTEMERGENCE, Rate 4 g/ha",40
same,"Plant response rating (0 to 100), Blackgrass","blackgrass; Rate 16 g/ha, POSTEMERGENCE",65
same,"Plant response rating, Cotton","cotton; POSTEMERGENCE, 62 g/ha",100
same,"Plant response rating (0 to 100), Cotton","cotton; POSTEMERGENCE, Rate 1 g/ha",100
same,"Plant response rating (0 to 100), Cotton","cotton; POSTEMERGENCE, Rate 4 g/ha",100
same,"Plant response rating (0 to 100), Cotton","cotton; Rate 16 g/ha, POSTEMERGENCE",100
same,"Plant response rating, Chickweed","chickweed; POSTEMERGENCE, 62 g/ha",100
same,"Plant response rating (0 to 100), Chickweed","chickweed; POSTEMERGENCE, Rate 1 g/ha",65
same,"Plant response rating (0 to 100), Chickweed","chickweed; POSTEMERGENCE, Rate 4 g/ha",80
same,"Plant response rating (0 to 100), Chickweed","chickweed; Rate 16 g/ha, POSTEMERGENCE",100
same,Plant response rating Pigweed,"pigweed; POSTEMERGENCE, 62 g/ha",100
same,"Plant response rating (0 to 100), Pigweed","pigweed; POSTEMERGENCE, Rate 1 g/ha",100
same,"Plant response rating (0 to 100), Pigweed","pigweed; POSTEMERGENCE, Rate 4 g/ha",100
same,"Plant response rating (0 to 100), Pigweed","pigweed; Rate 16 g/ha, POSTEMERGENCE",100
same,"Plant response rating, Corn","corn; POSTEMERGENCE, 62 g/ha",50
same,"Plant response rating (0 to 100), Corn","corn; POSTEMERGENCE, Rate 1 g/ha",20
same,"Plant response rating (0 to 100), Corn","corn; POSTEMERGENCE, Rate 4 g/ha",30
same,"Plant response rating (0 to 100), Corn","corn; Rate 16 g/ha, POSTEMERGENCE",40
same,"Plant response rating, Nutsedge","purple nutsedge; POSTEMERGENCE, Rate 10 g/ha",4
same,"Plant response rating, Nutsedge","purple nutsedge; POSTEMERGENCE, Rate 50 g/ha",7
same,"Plant response rating, Nutsedge","purple nutsedge; PREEMERGENCE, Rate 50 g/ha",4
CCCN1C(=O)COc2cc(F)c(-c3nn4c(c3Br)CCCC4)cc21 [Compound 63],"Plant response rating, Rice","rice; POSTEMERGENCE, Rate 10 g/ha",3
same,"Plant response rating, Rice","rice; POSTEMERGENCE, Rate 50 g/ha",5
same,"Plant response rating, Rice","rice; PREEMERGENCE, Rate 50 g/ha",0
same,"Plant response rating, Giant foxtail","giant foxtail; PREEMERGENCE, 62 g/ha",20
same,"Plant response rating, Giant foxtail","giant foxtail; PREEMERGENCE, 250 g/ha",75
same,"Plant response rating (0 to 100), Giant foxtail","giant foxtail; PREEMERGENCE, Rate 4 g/ha",0
same,"Plant response rating (0 to 100), Giant foxtail","giant foxtail; Rate 16 g/ha, PREEMERGENCE",0
same,"Plant response rating, Velvetleaf","velvetleaf; PREEMERGENCE, 250 g/ha",100
same,"Plant response rating (0 to 100), Velvetleaf","velvetleaf; PREEMERGENCE, Rate 4 g/ha",0
same,"Plant response rating (0 to 100), Velvetleaf","velvetleaf; Rate 16 g/ha, PREEMERGENCE",20
same,"Plant response rating, Cocklebur","cocklebur; POSTEMERGENCE, Rate 10 g/ha",8
same,"Plant response rating, Cocklebur","cocklebur; POSTEMERGENCE, Rate 50 g/ha",9
same,"Plant response rating, Cocklebur","cocklebur; PREEMERGENCE, Rate 10 g/ha",0
same,"Plant response rating, Cocklebur","cocklebur; PREEMERGENCE, Rate 50 g/ha",0
same,"Plant response rating, Bedstraw","bedstraw; PREEMERGENCE, 62 g/ha",100
same,"Plant response rating, Bedstraw","bedstraw; PREEMERGENCE, 250 g/ha",100
same,"Plant response rating (0 to 100), Bedstraw","bedstraw; PREEMERGENCE, Rate 4 g/ha",0
same,"Plant response rating (0 to 100), Bedstraw","bedstraw; Rate 16 g/ha, PREEMERGENCE",10
same,"Plant response rating, Sugar beet","sugar beet; PREEMERGENCE, 250 g/ha",100
same,"Plant response rating (0 to 100), Sugar beet","sugar beet; PREEMERGENCE, Rate 4 g/ha",10
same,"Plant response rating (0 to 100), Sugar beet","sugar beet; Rate 16 g/ha, PREEMERGENCE",100
same,"Plant response rating, Soybean","soybean; POSTEMERGENCE, Rate 10 g/ha",6
same,"Plant response rating, Soybean","soybean; POSTEMERGENCE, Rate 50 g/ha",5
same,"Plant response rating, Soybean","soybean; PREEMERGENCE, Rate 50 g/ha",0
same,"Plant response rating, Wild buckwheat","wild buckwheat; POSTEMERGENCE, Rate 10 g/ha",9
same,"Plant response rating, Wild buckwheat","wild buckwheat; POSTEMERGENCE, Rate 50 g/ha",10
same,"Plant response rating, Wild buckwheat","wild buckwheat; PREEMERGENCE, Rate 50 g/ha",10
same,"Plant response rating, Blackgrass","blackgrass; PREEMERGENCE, 62 g/ha",50
same,"Plant response rating, Blackgrass","blackgrass; PREEMERGENCE, 250 g/ha",90
same,"Plant response rating (0 to 100), Blackgrass","blackgrass; PREEMERGENCE, Rate 4 g/ha",10
same,"Plant response rating (0 to 100), Blackgrass","blackgrass; Rate 16 g/ha, PREEMERGENCE",30
same,"Plant response rating, Cotton","cotton; PREEMERGENCE, 62 g/ha",20
same,"Plant response rating, Cotton","cotton; PREEMERGENCE, 250 g/ha",70
same,"Plant response rating (0 to 100), Cotton","cotton; PREEMERGENCE, Rate 4 g/ha",0
same,"Plant response rating (0 to 100), Cotton","cotton; Rate 16 g/ha, PREEMERGENCE",0
same,"Plant response rating, Chickweed","chickweed; PREEMERGENCE, 62 g/ha",30
same,"Plant response rating, Chickweed","chickweed; PREEMERGENCE, 250 g/ha",50
same,"Plant response rating (0 to 100), Chickweed","chickweed; PREEMERGENCE, Rate 4 g/ha",10
same,"Plant response rating (0 to 100), Chickweed","chickweed; Rate 16 g/ha, PREEMERGENCE",20
same,Plant response rating Pigweed,"pigweed; PREEMERGENCE, 62 g/ha",100
same,Plant response rating Pigweed,"pigweed; PREEMERGENCE, 250 g/ha",100
same,"Plant response rating (0 to 100), Pigweed","pigweed; PREEMERGENCE, Rate 4 g/ha",0
same,"Plant response rating (0 to 100), Pigweed","pigweed; Rate 16 g/ha, PREEMERGENCE",100
same,"Plant response rating, Corn","corn; PREEMERGENCE, 62 g/ha",20
same,"Plant response rating, Corn","corn; PREEMERGENCE, 250 g/ha",30
same,"Plant response rating (0 to 100), Corn","corn; PREEMERGENCE, Rate 4 g/ha",0
same,"Plant response rating (0 to 100), Corn","corn; Rate 16 g/ha, PREEMERGENCE",0
same,"Plant response rating, Nutsedge","purple nutsedge; POSTEMERGENCE, Rate 10 g/ha",1
same,"Plant response rating, Nutsedge","purple nutsedge; POSTEMERGENCE, Rate 50 g/ha",6
same,"Plant response rating, Nutsedge","purple nutsedge; PREEMERGENCE, Rate 50 g/ha",0
